Data taken from PubChem BioAssay AID1963971 (Molecular Pharmacology Branch, DTP, NCI, 2024).

Test system: 953936-095-R-J2-PDC spheroids with HUVEC/MSC, viability
Assay: Anticancer human tumor 953936-095-R-J2-PDC patient-derived cervical squamous cell carcinoma cell line growth inhibition [PI3K]
Conditions: for IC50: curve of first compound; for viability, T/C: stronger effect = lower value
In short: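 Tumor cells grown as multi-cell spheroids with HUVEC endothelial cells and MSC fibroblast-like stroma were treated with targeted agents combined with inavolisib, alpelisib, duvelisib or copanlisib. Doses fell in half-log steps from near clinical Cmax, else from 10 microM. Viability was measured.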

[1] = second compound 0.00316 µM, first compound 0.0316 µM
[2] = second compound 0.00316 µM, first compound 0.1 µM
[3] = second compound 0.00316 µM, first compound 0.316 µM
[4] = second compound 0.00316 µM, first compound 1 µM
[5] = second compound 0.01 µM, first compound 0.0316 µM
[6] = second compound 0.01 µM, first compound 0.1 µM
[7] = second compound 0.01 µM, first compound 0.316 µM
[8] = second compound 0.01 µM, first compound 1 µM
[9] = second compound 0.0316 µM, first compound 0.0316 µM
[10] = second compound 0.0316 µM, first compound 0.1 µM
[11] = second compound 0.0316 µM, first compound 0.316 µM
[12] = second compound 0.0316 µM, first compound 1 µM
[13] = second compound 0.1 µM, first compound 0.0316 µM
[14] = second compound 0.1 µM, first compound 0.1 µM
[15] = second compound 0.1 µM, first compound 0.316 µM
[16] = second compound 0.1 µM, first compound 1 µM
[17] = second compound 0.316 µM, first compound 0.0316 µM
[18] = second compound 0.316 µM, first compound 0.1 µM
[19] = second compound 0.316 µM, first compound 0.316 µM
[20] = second compound 0.316 µM, first compound 1 µM
[21] = second compound 1 µM, first compound 0.0316 µM
[22] = second compound 1 µM, first compound 0.1 µM
[23] = second compound 1 µM, first compound 0.316 µM
[24] = second compound 1 µM, first compound 1 µM
[25] = second compound 0.00316 µM, first compound 3.16 µM
[26] = second compound 0.00316 µM, first compound 10 µM
[27] = second compound 0.01 µM, first compound 3.16 µM
[28] = second compound 0.01 µM, first compound 10 µM
[29] = second compound 0.0316 µM, first compound 3.16 µM
[30] = second compound 0.0316 µM, first compound 10 µM
[31] = second compound 0.1 µM, first compound 3.16 µM
[32] = second compound 0.1 µM, first compound 10 µM
[33] = second compound 0.316 µM, first compound 3.16 µM
[34] = second compound 0.316 µM, first compound 10 µM
[35] = second compound 1 µM, first compound 3.16 µM
[36] = second compound 1 µM, first compound 10 µM
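Note: spheroids exposed to compounds for seven days before read-out.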

CCN1CCN(Cc2ccc(Nc3ncc(F)c(-c4cc(F)c5nc(C)n(C(C)C)c5c4)n3)nc2)CC1 + CC(Nc1ccc2c(c1)OCCn1cc(N3C(=O)OCC3C(F)F)nc1-2)C(N)=O
IC50 (second compound 0.00316 µM): > 1000 nM | IC50 (second compound 0.01 µM): > 1000 nM | IC50 (second compound 0.0316 µM): > 1000 nM | IC50 (second compound 0.1 µM): 64.4 nM | IC50 (second compound 0.316 µM): < 3.16 nM | IC50 (second compound 1 µM): < 3.16 nM | viability, T/C (second compound 0.00316 µM, first compound 0.00316 µM): 102% | viability, T/C (second compound 0.00316 µM, first compound 0.01 µM): 98.5% | viability, T/C [1]: 94.6% | viability, T/C [2]: 96.6% | viability, T/C [3]: 89.8% | viability, T/C [4]: 80.7% | viability, T/C (second compound 0.01 µM, first compound 0.00316 µM): 93% | viability, T/C (second compound 0.01 µM, first compound 0.01 µM): 104% | viability, T/C [5]: 94.2% | viability, T/C [6]: 83.3% | viability, T/C [7]: 80% | viability, T/C [8]: 79.3% | viability, T/C (second compound 0.0316 µM, first compound 0.00316 µM): 73% | viability, T/C (second compound 0.0316 µM, first compound 0.01 µM): 79.7% | viability, T/C [9]: 72.5% | viability, T/C [10]: 75.8% | viability, T/C [11]: 63.8% | viability, T/C [12]: 72.2% | viability, T/C (second compound 0.1 µM, first compound 0.00316 µM): 58.4% | viability, T/C (second compound 0.1 µM, first compound 0.01 µM): 53.8% | viability, T/C [13]: 53.5% | viability, T/C [14]: 47.9% | viability, T/C [15]: 45.8% | viability, T/C [16]: 48.5% | viability, T/C (second compound 0.316 µM, first compound 0.00316 µM): 34.8% | viability, T/C (second compound 0.316 µM, first compound 0.01 µM): 36% | viability, T/C [17]: 31.1% | viability, T/C [18]: 32.3% | viability, T/C [19]: 27.6% | viability, T/C [20]: 29.4% | viability, T/C (second compound 1 µM, first compound 0.00316 µM): 22% | viability, T/C (second compound 1 µM, first compound 0.01 µM): 21.5% | viability, T/C [21]: 22.7% | viability, T/C [22]: 18.8% | viability, T/C [23]: 18.4% | viability, T/C [24]: 24.7%

Cn1ncc(Cl)c1-c1cc(C(=O)NC(CN)Cc2cccc(F)c2)sc1Cl (stereo unspecified) + CC(Nc1ccc2c(c1)OCCn1cc(N3C(=O)OCC3C(F)F)nc1-2)C(N)=O
IC50 (second compound 0.00316 µM): 618 nM | IC50 (second compound 0.01 µM): 499 nM | IC50 (second compound 0.0316 µM): 323 nM | IC50 (second compound 0.1 µM): 181 nM | IC50 (second compound 0.316 µM): < 31.6 nM | IC50 (second compound 1 µM): < 31.6 nM | viability, T/C [1]: 83.3% | viability, T/C [2]: 84.3% | viability, T/C [3]: 62.6% | viability, T/C [4]: 40.2% | viability, T/C [25]: 19.1% | viability, T/C [26]: 11% | viability, T/C [5]: 90.4% | viability, T/C [6]: 87.3% | viability, T/C [7]: 58.1% | viability, T/C [8]: 35.1% | viability, T/C [27]: 17.7% | viability, T/C [28]: 12.6% | viability, T/C [9]: 78.3% | viability, T/C [10]: 71.3% | viability, T/C [11]: 49.7% | viability, T/C [12]: 27.6% | viability, T/C [29]: 15.5% | viability, T/C [30]: 9.96% | viability, T/C [13]: 66.6% | viability, T/C [14]: 61.7% | viability, T/C [15]: 38.8% | viability, T/C [16]: 25.7% | viability, T/C [31]: 13.6% | viability, T/C [32]: 10.5% | viability, T/C [17]: 36.1% | viability, T/C [18]: 37.1% | viability, T/C [19]: 28% | viability, T/C [20]: 17.1% | viability, T/C [33]: 12.9% | viability, T/C [34]: 7.57% | viability, T/C [21]: 22.1% | viability, T/C [22]: 22.5% | viability, T/C [23]: 18.8% | viability, T/C [24]: 13.8% | viability, T/C [35]: 10.4% | viability, T/C [36]: 5.59%

Cn1nccc1Nc1nccc(-c2ccn(C(CO)c3ccc(Cl)c(F)c3)c(=O)c2)n1 (stereo unspecified) + CC(Nc1ccc2c(c1)OCCn1cc(N3C(=O)OCC3C(F)F)nc1-2)C(N)=O
IC50 (second compound 0.00316 µM): > 10000 nM | IC50 (second compound 0.01 µM): > 10000 nM | IC50 (second compound 0.0316 µM): > 10000 nM | IC50 (second compound 0.1 µM): 383 nM | IC50 (second compound 0.316 µM): < 31.6 nM | IC50 (second compound 1 µM): < 31.6 nM | viability, T/C [1]: 86.2% | viability, T/C [2]: 87% | viability, T/C [3]: 93.8% | viability, T/C [4]: 95.1% | viability, T/C [25]: 80.4% | viability, T/C [26]: 71.7% | viability, T/C [5]: 84.4% | viability, T/C [6]: 94% | viability, T/C [7]: 88.8% | viability, T/C [8]: 77.1% | viability, T/C [27]: 78.8% | viability, T/C [28]: 70% | viability, T/C [9]: 75.2% | viability, T/C [10]: 68.8% | viability, T/C [11]: 70.1% | viability, T/C [12]: 72% | viability, T/C [29]: 65.1% | viability, T/C [30]: 61.9% | viability, T/C [13]: 62.1% | viability, T/C [14]: 52.7% | viability, T/C [15]: 51.3% | viability, T/C [16]: 46.5% | viability, T/C [31]: 47.8% | viability, T/C [32]: 40.1% | viability, T/C [17]: 36.3% | viability, T/C [18]: 32.8% | viability, T/C [19]: 31% | viability, T/C [20]: 28.4% | viability, T/C [33]: 24% | viability, T/C [34]: 19.5% | viability, T/C [21]: 21.9% | viability, T/C [22]: 20.9% | viability, T/C [23]: 18% | viability, T/C [24]: 15.1% | viability, T/C [35]: 12.6% | viability, T/C [36]: 8.88%
